Experimental data: patent US20240197938A1, “ANTIMICROBIAL COMPOUNDS BASED ON GLUCOHEPTONIC ACIDS AND THEIR SALTS” (HARCROS CHEMICALS, INC., priority 2021, published 2024)

What was measured:
[1] = Bubble pressure tensiometry (dynamic surface tension, calculated CMC); format: physicochemical; details: bubble tensiometry
Protocol: Dynamic surface tensions of certain formulations were measured using a KRÜSS BP100 BPT Mobile bubble pressure tensiometer. Samples of the solution of Example 7 were tested by adding the test solution to a glass dish and lowering the disposable capillary tip and temperature probe into the solution. The dynamic setting was selected, and the instrument was set to collect 30 data points, the bubble age increasing from about 10 ms to about 30,000 ms.
Bubble tensiometry was used to calculate the Critical Micelle Concentration (CMC) value for each of the solutions.
FIG. 1 presents a comparison of the bubble age to surface tension for RM14A at CMC, sub-CMC, and super-CMC concentrations. FIG. 2 presents a comparison of the bubble age to surface tension for RM14B at CMC, sub-CMC, and super-CMC concentrations. FIG. 3 presents a comparison of the bubble age to surface tension for RM14C at CMC, sub-CMC, and super-CMC concentrations. FIG. 4 presents a comparison of the bubble age to surface tension for RM12A, RM13A, RM14A, and RM15A at super-CMC concentrations. FIG. 5 presents a comparison of the bubble age to surface tension for RM12A, RM13A, RM14A, and RM15A at CMC concentrations. FIG. 6 presents a comparison of the bubble age to surface tension for RM12A, RM13A, RM14A, and RM15A at CMC concentrations. FIG. 7 presents a comparison of bubble age to surface tension for RM12A, RM13A, RM14A, and RM15A at sub-CMC concentrations.

[2] = Conductivity testing (calculated CMC); format: physicochemical; details: for Calculated CMC, All Points: all data points; for Calculated CMC, Average: average of outer, inner, all points; for Calculated CMC, Inner Points: inner data points; for Calculated CMC, Outer Points: outer data points
Protocol: Conductivities were measured using a VWR 23609-216 Pure H2O Tester conductivity meter. The meter probe was submerged into the test solution and swirled gently. Once the meter settled, the value was recorded.
The conductivity of the solutions of Example 7 were tested at dilutions ranging from 0.1 M to 0.001 M. The data was plotted on a logarithmic scale and analyzed in the style of Heard and Ashworth. For each sample, three graphs were reported and fitted with a trend curve: outer data points, inner data points, all data points. […] An average CMC value was determined from the three trend samples (outer data points, inner data points, all data points) in order to more accuracy predict the CMC value.
LINEST was utilized to determine the slope and intercept for each line, and a combination of INTERCEPT and SLOPE was used to determine the intersection of the two fitted lines. The Critical Micelle Concentration (CMC) was determined for each of these plots by the intercept of the two lines. Set forth below in Table 5 is the calculated CMC for each graph and the average CMC.

Row | Calculated CMC [1] | Calculated CMC, All Points [2] | Calculated CMC, Average [2] | Calculated CMC, Inner Points [2] | Calculated CMC, Outer Points [2] | SMILES
1 | 0.0166 M | 0.0131 M | 0.0133 M | 0.0156 M | 0.0111 M | N=C(NCCCCCCNC(=N)NC(=N)Nc1ccc(Cl)cc1)NC(=N)Nc1ccc(Cl)cc1.O=C(O)C(O)C(O)C(O)C(O)C(O)CO.O=C(O)C(O)C(O)C(O)C(O)C(O)CO [RM14C, Chlorhexidine di-β73-glucoheptonate]
2 | 0.0173 M | 0.0133 M | 0.0133 M | 0.0154 M | 0.0113 M | N=C(NCCCCCCNC(=N)NC(=N)Nc1ccc(Cl)cc1)NC(=N)Nc1ccc(Cl)cc1.O=C(O)C(O)C(O)C(O)C(O)C(O)CO.O=C(O)C(O)C(O)C(O)C(O)C(O)CO [RM15A, Chlorhexidine di-β81-glucoheptonate]
